Results taken from PMC4403042, “Atrial-like cardiomyocytes from human pluripotent stem cells are a robust preclinical model for assessing atrial-selective pharmacology” (EMBO Molecular Medicine, 2015).

What was measured:
hESC-atrial CMs = test: Action potential recording (amphotericin-B-perforated patch-clamp) in hESC-atrial CMs; assay type: cell-based, human; settings: for reversibility of AP changes: washout
Method: (§1) Spin EBs resulting from control and RA-treated differentiations were dissociated at day 17 to single cells using TrypLE™ Select (Life Technologies) and plated on gelatin-coated coverslips. Electrophysiological measurements were performed 10–14 days after dissociation from intrinsically quiescent single GFP^+ CMs that were able to contract upon field stimulation.
(§2) APs and membrane currents from hESC-CMs were recorded with the amphotericin-B-perforated patch-clamp technique at 36 ± 0.2°C using an Axopatch 200B amplifier (Molecular Devices, Sunnyvale, CA, USA). Cells were superfused with Tyrode's solution containing (in mmol/l) NaCl 140, KCl 5.4, CaCl2 1.8, MgCl2 1.0, glucose 5.5, and HEPES 5.0; pH was adjusted to 7.4 with NaOH. Pipettes (borosilicate glass; resistance 2–3 MΩ) were heat polished and filled with solution containing (in mmol/l) K-gluconate 125, KCl 20, NaCl 5, amphotericin-B 0.22 and HEPES 10; pH was adjusted to 7.2 with KOH. AP measurements were low-pass-filtered (cutoff frequency 10 kHz) and digitized at 40 kHz; membrane currents were measured at 1 and 4 kHz, respectively. Capacitance and series resistance were compensated by ≥ 80%, and APs were corrected for the calculated liquid junction potential (Barry & Lynch, [1991]). Voltage control, data acquisition and analysis were accomplished using custom software. Cell membrane capacitance (Cm) was estimated by dividing the time constant of the decay of the capacitive transient in response to 5 mV hyperpolarizing voltage clamp steps from −40 mV by the series resistance.
(§3) APs were elicited at 0.5 to 4 Hz by 3 ms, ∼1.2× threshold current pulses through the patch pipette. APs were characterized, as depicted in Fig2A, by resting membrane potential (RMP), maximum upstroke velocity (dV/dtmax), maximum AP amplitude (APAmax), AP plateau amplitude (APAplat, defined as the potential difference between RMP and potential at 20 ms after the upstroke), and the duration at 20, 50 and 90% repolarization (APD20, APD50, and APD90, respectively). Parameter values obtained from 10 consecutive APs were averaged. […]
(§4) (1:2000, Sigma) was performed in TBS-0.05% Tween 20 containing 2% nonfat milk for 1 hour at room temperature. The corresponding secondary antibody conjugated to horseradish peroxidase (HRP) (1:2000; anti-mouse-HRP (#7076), Cell Signaling) was incubated for 1 h at room temperature in 2% nonfat milk. Blots were developed on X-ray films by using a chemiluminescent detection system (ECL; GE Life Science, […]
(§5) The effects of drugs were tested in paired measurements 5 minutes after the onset of bath application. 4-AP was prepared as a 50 mmol/L stock solution in Tyrode’s solution, and pH adjusted to 7.4, with the addition of HCl. CCh, a muscarinic receptor agonist, was prepared as a 10 mmol/L stock solution in Tyrode’s solution. Nifedipine was prepared as a 10 mmol/L stock solution in DMSO and stored at 4 °C. Stock solutions for the other compounds were prepared in DMSO: Vernakalant (30 mmol/L), XEN- D0101 (3 mmol/L), XEN-R0703 (2 mmol/L) and […]. All stock solutions were diluted appropriately before use.
(§6) Recombinant ion channel pharmacology
(§7) Studies were conducted at room temperature using the whole-cell patch-clamp technique. HEK293 cells expressing Kir3.1/3.4, Kir2.1, and CHO cells expressing Nav1.2, Cav1.2 or hERG were used.

hESC-ventricular CMs = test: Action potential recording (amphotericin-B-perforated patch-clamp) in hESC-ventricular CMs; assay type: cell-based, human; settings: 1 Hz; for APAmax / APAplat / APD20 / dV/dtmax / APD50 / APD90: hESC-VM, n=5, mean±SEM
Method: as §1, §2, §3, §4, §5, §6, §7

[1] = hESC-AM, 4-AP 50 μmol/l, 1 Hz, n=5, mean±SEM, Table S5
[2] = hESC-AM, CCh 10 μmol/l, 1 Hz, n=4, mean±SEM, Table S9
[3] = hESC-AM, CCh 10 μmol/l, 1 Hz, n=5, mean±SEM, Table S5
[4] = XEN-D0101 3 μmol/l, 1 Hz, vs pre-drug
[5] = hESC-AM, XEN-D0101 3 μmol/l, 1 Hz, n=5, mean±SEM, Table S7
[6] = hESC-AM, vernakalant 30 μmol/l, 1 Hz, n=5, mean±SEM, Table S6
[7] = vernakalant 30 μmol/l, 1 Hz, vs pre-drug
[8] = vernakalant 30 μmol/l, Table S6

For `Nc1ccncc1` [4-AP, 4-aminopyridine], the APAmax (hESC-atrial CMs; [1]) was 94.6±3.0 mV, the APAplat (hESC-atrial CMs; [1]) was 86.4±6.5 mV and the APD20 (hESC-atrial CMs; [1]) was 41.6 ± 8.1 ms. It also gave an APD50 (hESC-atrial CMs; [1]) of 72 ± 13 ms, an APAmax (hESC-ventricular CMs; 4-AP 50 μmol/l, Table S5) of 99.0±4.0 mV and an APAplat (hESC-ventricular CMs; 4-AP 50 μmol/l, Table S5) of 99.8±5.8 mV. The APD20 (hESC-ventricular CMs; 4-AP 50 μmol/l, Table S5) was 83.1 ± 15.1 ms and the dV/dtmax (hESC-ventricular CMs; 4-AP 50 μmol/l, Table S5) was 49.9±11.1 V/s.
`C[N+](C)(C)CCOC(N)=O` [CCh, carbachol] gave an APAmax (hESC-atrial CMs; [2]) of 88.9±1.4 mV, an APAplat (hESC-atrial CMs; [2]) of 72.4±3.1 mV and an APD20 (hESC-atrial CMs; [2]) of 23.9 ± 4.6 ms. The APD50 (hESC-atrial CMs; [2]) was 68.1 ± 7.7 ms, the APD90 (hESC-atrial CMs; [2]) was 141.2 ± 12.4 ms and the dV/dtmax (hESC-atrial CMs; [2]) was 40.0±5.2 V/s. The APAmax (hESC-atrial CMs; [3]) was 89.1±1.1 mV, the APAplat (hESC-atrial CMs; [3]) was 72.6±2.3 mV and the APD20 (hESC-atrial CMs; [3]) was 25.4 ± 3.8 ms. The APD50 (hESC-atrial CMs; [3]) was 67 ± 6 ms, the dV/dtmax (hESC-ventricular CMs; CCh 10 μmol/l) was 129.9±54 V/s and the APAmax (hESC-ventricular CMs; CCh 10 μmol/l, Table S5) was 104.4±9.1 mV. It also gave an APD20 (hESC-ventricular CMs; CCh 10 μmol/l, Table S5) of 112.9 ± 18.0 ms, an APAmax (hESC-ventricular CMs; CCh 10 μmol/l, Table S9) of 110.5±7.8 mV and an APAplat (hESC-ventricular CMs; CCh 10 μmol/l, Table S9) of 109.6±7.5 mV. For the same compound, the APD20 (hESC-ventricular CMs; CCh 10 μmol/l, Table S9) was 122.9 ± 17.5 ms, the APD50 (hESC-ventricular CMs; CCh 10 μmol/l, Table S9) was 181.2 ± 27.6 ms and the APD90 (hESC-ventricular CMs; CCh 10 μmol/l, Table S9) was 230.6 ± 25.7 ms. The dV/dtmax (hESC-ventricular CMs; CCh 10 μmol/l, Table S9) was 154.8±58.3 V/s.
In the case of `O=C(NCCO)C1CCCN(c2nc(NCc3ccccn3)c3c(-c4ccccc4)csc3n2)C1` (stereo not shown) [XEN-D0101], the “change of APA” value (hESC-atrial CMs; [4]) is reported as > 10 mV, the “change of dV/dtmax” value (hESC-atrial CMs; [4]) is reported as > 8 V/s and the “elevation of APAplat” value (hESC-atrial CMs; [4]) is reported as > 26 mV. For the same compound, the “prolongation of APD20” value (hESC-atrial CMs; [4]) was > 30 ms, the “prolongation of APD50” value (hESC-atrial CMs; [4]) was > 35 ms and the “prolongation of APD90” value (hESC-atrial CMs; [4]) was > 23 ms. The “reversibility of AP changes” value (hESC-atrial CMs; XEN-D0101 3 μmol/l) was “reversible upon washout”, the APAmax (hESC-atrial CMs; [5]) was 98.9±5.8 mV and the APAplat (hESC-atrial CMs; [5]) was 86.8±7.4 mV. It also gave an APD20 (hESC-atrial CMs; [5]) of 55.7 ± 16.2 ms, an APD50 (hESC-atrial CMs; [5]) of 91.3 ± 22.6 ms and an APD90 (hESC-atrial CMs; [5]) of 156.2 ± 22.8 ms. The “effect on AP parameters” value (hESC-ventricular CMs; XEN-D0101 3 μmol/l) was “did not s ignificantly alter any AP parameter”, the APAmax (hESC-ventricular CMs; XEN-D0101 3 μmol/l, Table S7) was 105.3±5.8 mV and the APAplat (hESC-ventricular CMs; XEN-D0101 3 μmol/l, Table S7) was 103.7±6.5 mV. For the same compound, the APD20 (hESC-ventricular CMs; XEN-D0101 3 μmol/l, Table S7) was 101.3 ± 14.0 ms, the APD50 (hESC-ventricular CMs; XEN-D0101 3 μmol/l, Table S7) was 158.4 ± 18.0 ms and the APD90 (hESC-ventricular CMs; XEN-D0101 3 μmol/l, Table S7) was 237.4 ± 21.9 ms.
With `COc1ccc(CCO[C@@H]2CCCC[C@H]2N2CC[C@@H](O)C2)cc1OC` [vernakalant] the APAmax (hESC-atrial CMs; [6]) was 80.3±2.2 mV, the APAplat (hESC-atrial CMs; [6]) was 73.6±4.9 mV and the APD20 (hESC-atrial CMs; [6]) was 29.7 ± 4.0 ms. The APD50 (hESC-atrial CMs; [6]) was 65.4 ± 7.7 ms, the APD90 (hESC-atrial CMs; [6]) was 177.2 ± 08.2 ms and the RMP (hESC-atrial CMs; [6]) was -74.2±2.5 mV. The dV/dtmax (hESC-atrial CMs; [6]) was 40.4±3.8 V/s, the “increase of APAmax” value (hESC-atrial CMs; [7]) was > 2.5 mV and the “increase of APAplat” value (hESC-atrial CMs; [7]) was > 20%. The “prolongation of APD20” value (hESC-atrial CMs; [7]) was > 7.5 ms, the “prolongation of APD50” value (hESC-atrial CMs; [7]) was > 15 ms and the “prolongation of APD90” value (hESC-atrial CMs; [7]) was > 22 ms. The “reversibility of AP changes” value (hESC-atrial CMs; vernakalant 30 μmol/l) was “nearly reversible upon washout”, the APAmax (hESC-ventricular CMs; [8]) was 104±2.2 mV and the APAplat (hESC-ventricular CMs; [8]) was 101.3±2.8 mV. It also gave an APD20 (hESC-ventricular CMs; [8]) of 68.6 ± 06.8 ms, an APD90 (hESC-ventricular CMs; [8]) of 180.0 ± 17.7 ms and a dV/dtmax (hESC-ventricular CMs; [8]) of 58.3±6.1 V/s. For the same compound, the “effect on AP parameters” value (hESC-ventricular CMs; vernakalant 30 μmol/l) was “reduced dV/dtmax but without affecting other AP parameters”.
